System: Plasmodium berghei
Experiment: Luciferase/luciferin-expressing antifolate-resistant parasites were used to infect a culture of HepG2 cells that were pre-incubated with compounds. Infected hepatocytes emit light due to the luciferase reaction. Assay results are presented as the percent inhibition of light emission compared to control. […]
Assay type: functional
Conditions: sporozoite; for IC90: read-out: LUCIFERASE INFECTION ASSAY - IC90

SMILES	IC90 [µM]	other results
O=C1NC(c2ccccc2)=C(c2nc3ccccc3s2)C(c2ccc(O)cc2)N1 (stereo not drawn)	> 10	IC50 (FFLUC_HILL_SLOPE 17.5, FFLUC_R_SQUARED 0.699, PBLUC_HILL_SLOPE 3.26, 2.75, PBLUC_R_SQUARED 0.346, 0.719, read-out: LUCIFERASE INFECTION ASSAY - IC50): 5.94 µM
CCN(CC(=O)Nc1ccccc1-c1ccccc1)Cc1nc(O)c2ccccc2n1	7.89	IC50 (FFLUC_HILL_SLOPE 18, FFLUC_R_SQUARED 0.273, HEPG2TOX_HILL_SLOPE 1.8, HEPG2TOX_R_SQUARED 0.962, PBLUC_HILL_SLOPE 1.44, PBLUC_R_SQUARED 0.751, read-out: LUCIFERASE INFECTION ASSAY - IC50): 1.72 µM
CN(CC(=O)Nc1c(Cl)cccc1Cl)C(=O)c1ccccc1-c1nc2ccccc2s1	6.97	IC50 (FFLUC_HILL_SLOPE 17.7, FFLUC_R_SQUARED 0.2, PBLUC_HILL_SLOPE 167, PBLUC_R_SQUARED 0.153, read-out: LUCIFERASE INFECTION ASSAY - IC50): 6.87 µM
Cc1cccc(N2CCN(C(=O)c3ccc4[nH]c(C)c(C)c4c3)CC2)c1C	1.14	IC50 (FFLUC_HILL_SLOPE 18.8, FFLUC_R_SQUARED 0.39, HEPG2TOX_HILL_SLOPE 1.29, HEPG2TOX_R_SQUARED 0.937, PBLUC_HILL_SLOPE 10.9, PBLUC_R_SQUARED 0.355, read-out: LUCIFERASE INFECTION ASSAY - IC50): 0.935 µM
Cc1ccnc(NC(c2ccccn2)c2ccc3cccnc3c2O)c1 (stereo not drawn)	> 9.64	IC50 (FFLUC_HILL_SLOPE 17.7, FFLUC_R_SQUARED 0.0708, HEPG2TOX_HILL_SLOPE 10.6, HEPG2TOX_R_SQUARED 0.571, PBLUC_HILL_SLOPE 38.3, PBLUC_R_SQUARED 0.424, read-out: LUCIFERASE INFECTION ASSAY - IC50): 9.27 µM
CC(NC(=O)C12CC3CC(CC(C3)C1)C2)C(=O)N/N=C/C1=C(N2CCOCC2)C(=C\c2ccccc2)/CC1 (stereo not drawn)	> 10	IC50 (FFLUC_HILL_SLOPE 17.7, FFLUC_R_SQUARED 0.505, PBLUC_HILL_SLOPE 17.3, PBLUC_R_SQUARED 0.294, read-out: LUCIFERASE INFECTION ASSAY - IC50): 9.09 µM
N#C/C(=C\c1ccc(C(F)(F)F)cc1)c1c[nH]c2ccccc12	> 10.6	IC50 (FFLUC_HILL_SLOPE 17.8, FFLUC_R_SQUARED 0.181, PBLUC_HILL_SLOPE 2.5, PBLUC_R_SQUARED 0.114, read-out: LUCIFERASE INFECTION ASSAY - IC50): > 10.6 µM
COc1ccc(-c2cnc3ccc(-c4cccc(Cl)c4)nn23)cc1OC	5.25	IC50 (FFLUC_HILL_SLOPE 18.1, FFLUC_R_SQUARED 0.385, HEPG2TOX_HILL_SLOPE 1.42, HEPG2TOX_R_SQUARED 0.94, PBLUC_HILL_SLOPE 1.13, PBLUC_R_SQUARED 0.747, read-out: LUCIFERASE INFECTION ASSAY - IC50): 0.748 µM
Nc1ncnc(N/N=C/c2ccc(O)cc2O)c1[N+](=O)[O-]	> 10	IC50 (FFLUC_HILL_SLOPE 17.8, FFLUC_R_SQUARED 0.491, HEPG2TOX_HILL_SLOPE 1.97, HEPG2TOX_R_SQUARED 0.831, read-out: LUCIFERASE INFECTION ASSAY - IC50): > 10 µM
COc1ccc(C(=O)Nc2nc3ccc(C)cn3c2C(=O)NC2CCCCC2)cc1	3.1	IC50 (FFLUC_HILL_SLOPE 17.6, FFLUC_R_SQUARED 0.155, HEPG2TOX_HILL_SLOPE 2.69, HEPG2TOX_R_SQUARED 0.972, PBLUC_HILL_SLOPE 14.3, PBLUC_R_SQUARED 0.423, read-out: LUCIFERASE INFECTION ASSAY - IC50): 2.66 µM
COc1cccc(-c2nc(CSc3nc4ccccc4c(=O)n3C)cs2)c1	3.7	IC50 (FFLUC_HILL_SLOPE 18, FFLUC_R_SQUARED 0.516, HEPG2TOX_HILL_SLOPE 5.55, HEPG2TOX_R_SQUARED 0.861, PBLUC_HILL_SLOPE 17.5, PBLUC_R_SQUARED 0.299, read-out: LUCIFERASE INFECTION ASSAY - IC50): 3.27 µM
C=CCOc1cccc(/C=C2/C(=O)Nc3cc(Cl)ccc32)c1	> 10	IC50 (FFLUC_HILL_SLOPE 17.6, FFLUC_R_SQUARED 0.397, HEPG2TOX_HILL_SLOPE 7.7, HEPG2TOX_R_SQUARED 0.755, PBLUC_HILL_SLOPE 12.7, PBLUC_R_SQUARED 0.0397, read-out: LUCIFERASE INFECTION ASSAY - IC50): 9.6 µM
CC(=O)Nc1cccc(/C(C)=N/n2c(-c3cccc([N+](=O)[O-])c3)cs/c2=N\c2c(C)cccc2C)c1	4.17	IC50 (FFLUC_HILL_SLOPE 18.6, FFLUC_R_SQUARED 0.557, PBLUC_HILL_SLOPE 12.4, PBLUC_R_SQUARED 0.7, read-out: LUCIFERASE INFECTION ASSAY - IC50): 3.49 µM
COC(=O)C1=C(Nc2ccc(OC(=O)Nc3cccc(Cl)c3)cc2)CSC1	> 8.15	IC50 (FFLUC_HILL_SLOPE 18, FFLUC_R_SQUARED 0.412, read-out: LUCIFERASE INFECTION ASSAY - IC50): > 8.15 µM
O=C(Nc1nonc1-c1cccs1)c1sc2cc(Cl)ccc2c1Cl	2.76	IC50 (FFLUC_HILL_SLOPE 17.9, FFLUC_R_SQUARED 0.511, HEPG2TOX_HILL_SLOPE 2.63, HEPG2TOX_R_SQUARED 0.88, PBLUC_HILL_SLOPE 16.1, PBLUC_R_SQUARED 0.687, read-out: LUCIFERASE INFECTION ASSAY - IC50): 2.41 µM
O=C(O)c1cccc2cccc([S+]([O-])c3ccccc3CO)c12 (stereo not drawn)	> 10.1	IC50 (FFLUC_HILL_SLOPE 17.8, FFLUC_R_SQUARED 0.335, read-out: LUCIFERASE INFECTION ASSAY - IC50): > 10.1 µM
Cc1c(Cl)cccc1NC(=O)CCc1nc(C(C)C)no1	> 10	IC50 (FFLUC_HILL_SLOPE 18.3, FFLUC_R_SQUARED 0.35, read-out: LUCIFERASE INFECTION ASSAY - IC50): > 10 µM
Cc1cc(C)nc(-n2nc(Nc3ccccc3)cc2Nc2ccccc2)n1	> 10	IC50 (FFLUC_HILL_SLOPE 18.6, FFLUC_R_SQUARED 0.489, PBLUC_HILL_SLOPE 15, PBLUC_R_SQUARED 0.577, read-out: LUCIFERASE INFECTION ASSAY - IC50): 9.07 µM
CCOC(=O)c1c(-c2ccc(Cl)cc2)csc1NC(=O)CSc1nc2c(c(CC)c1C#N)C(=O)CC(C)(C)C2	> 10	IC50 (FFLUC_HILL_SLOPE 17.7, FFLUC_R_SQUARED 0.746, PBLUC_HILL_SLOPE 12.9, PBLUC_R_SQUARED 0.506, read-out: LUCIFERASE INFECTION ASSAY - IC50): 9.02 µM
CCCCCn1c(SCC(=O)Nc2sccc2C(N)=O)nc2sc3c(c2c1=O)CCC3	> 10	IC50 (FFLUC_HILL_SLOPE 17.7, FFLUC_R_SQUARED 0.0867, read-out: LUCIFERASE INFECTION ASSAY - IC50): > 10 µM
Cc1ccc(-c2nnc(N/N=C3/C=C(c4ccccc4)C(O)(c4ccccc4)C3)c3ccccc23)cc1C (stereo not drawn)	> 10	IC50 (FFLUC_HILL_SLOPE 18, FFLUC_R_SQUARED 0.659, PBLUC_HILL_SLOPE 2.04, PBLUC_R_SQUARED 0.344, read-out: LUCIFERASE INFECTION ASSAY - IC50): 6.48 µM
COc1cc(OC)cc(-c2cnc3cnc(-c4cccc(N)c4)cn23)c1	> 9.53	IC50 (FFLUC_HILL_SLOPE 17.8, FFLUC_R_SQUARED 0.255, PBLUC_HILL_SLOPE 12.5, PBLUC_R_SQUARED 0.443, read-out: LUCIFERASE INFECTION ASSAY - IC50): 9.41 µM
O=C(Nc1cccc(C2NCC(c3ccccc3Cl)c3c2[nH]c2ccccc32)c1)c1ccc(Cl)cc1 (stereo not drawn)	> 10	IC50 (FFLUC_HILL_SLOPE 18, FFLUC_R_SQUARED 0.972, PBLUC_HILL_SLOPE 3.03, PBLUC_R_SQUARED 0.515, read-out: LUCIFERASE INFECTION ASSAY - IC50): 7.4 µM
Cc1nn(-c2ccccc2)c2nc(-c3ccccc3)c(-c3nc4ccccc4[nH]3)c(-c3ccncc3)c12	> 10	IC50 (FFLUC_HILL_SLOPE 17.6, FFLUC_R_SQUARED 0.574, PBLUC_HILL_SLOPE 2.67, PBLUC_R_SQUARED 0.448, read-out: LUCIFERASE INFECTION ASSAY - IC50): 7.61 µM
Cc1cc(/C=C2\SC(NC3CCCCC3)=NC2=O)c(C)n1-c1ccc(Cl)c(C(F)(F)F)c1	9.71	IC50 (FFLUC_HILL_SLOPE 17.5, FFLUC_R_SQUARED 0.757, PBLUC_HILL_SLOPE 2.43, PBLUC_R_SQUARED 0.441, read-out: LUCIFERASE INFECTION ASSAY - IC50): 3.93 µM
O=S(=O)(Nc1ccc(Oc2cc(C(F)(F)F)cc(C(F)(F)F)c2)cc1)c1cc(C(F)(F)F)cc(C(F)(F)F)c1	3.81	IC50 (FFLUC_HILL_SLOPE 18.8, FFLUC_R_SQUARED 0.264, HEPG2TOX_HILL_SLOPE 15.6, HEPG2TOX_R_SQUARED 0.875, PBLUC_HILL_SLOPE 191, PBLUC_R_SQUARED 0.155, read-out: LUCIFERASE INFECTION ASSAY - IC50): 3.76 µM
CCOC(=O)c1c(-c2ccc(F)cc2)csc1NC(=O)CSc1nc2c(c(-c3ccccc3)c1C#N)C(=O)CC(C)(C)C2	> 10	IC50 (FFLUC_HILL_SLOPE 18.8, FFLUC_R_SQUARED 0.892, read-out: LUCIFERASE INFECTION ASSAY - IC50): > 10 µM
CC(C)NC(=O)c1c(NC(=O)c2cc(F)cc(F)c2)nc2ccccn12	1.12	IC50 (FFLUC_HILL_SLOPE 17.9, FFLUC_R_SQUARED 0.386, HEPG2TOX_HILL_SLOPE 1.01, HEPG2TOX_R_SQUARED 0.782, PBLUC_HILL_SLOPE 15.7, PBLUC_R_SQUARED 0.648, read-out: LUCIFERASE INFECTION ASSAY - IC50): 0.969 µM
O=[N+]([O-])c1cc(C(F)(F)F)ccc1N1CCCN(C(=S)Nc2cccc(C(F)(F)F)c2)CC1	> 6.7	IC50 (FFLUC_HILL_SLOPE 18.8, FFLUC_R_SQUARED 0.397, HEPG2TOX_HILL_SLOPE 0.504, HEPG2TOX_R_SQUARED 0.366, read-out: LUCIFERASE INFECTION ASSAY - IC50): > 6.7 µM

Source: ChEMBL document CHEMBL4483862, “Open-source discovery of chemical leads for next-generation chemoprotective antimalarials” (2018)
